Laboratory results from patent US7964624B1, “Inhibitors of serine proteases” (priority 2005, dated 2011).

What was measured:
HCV NS3 protease domain = biological target: T1, HCV NS3 protease domain (Hepatitis C virus genotype 1b, UniProt Q9WMX2); assay: biochemical; details: Enzyme Assay 1 (HCV NS3 Protease Domain Peptide Cleavage Assay) activity, apparent Ki class
T1 construct: The first 181 amino acids of NS3 (residues 1027-1207 of the viral polyprotein); hexa-histidine (C); made in house; host or cells: E. coli BL21/DE3 pLysS

[1] = biological target: T2, full-length hepatitis C viral protein NS3•4A (Hepatitis C virus genotype 1a, UniProt P27958); assay: biochemical; design: species or system HCV sub-type strain 1a; details: Enzyme Assay 2 (HCV NS3 Peptide Cleavage Assay) activity, apparent Ki class
T2 construct: hexa-histidine (N); made in house; host or cells: Sf9 insect cells (baculovirus, pVL1392)

SMILES | Ki (HCV NS3 protease domain) [nM] | Ki [1] [nM]
CCC[C@H](NC(=O)[C@@H]1C[C@]2(CC(c3cccc(Cl)c3)=NO2)CN1C(=O)[C@@H](NC(=O)CC1CCCCC1)C(C)(C)C)C(=O)C(=O)Nc1ccc(C)c(C#N)c1 [Compound 96] | > 500 | 100 to 500
CCC[C@H](NC(=O)[C@@H]1C[C@]2(CC(c3cc(Cl)cc4c3OCC4)=NO2)CN1C(=O)[C@@H](NC(=O)CC1CCCCC1)C(C)(C)C)C(=O)C(=O)NC1CC1 [Compound 134] | 100 to 500 | < 100
CCC[C@H](NC(=O)[C@@H]1C[C@]2(CC(c3cccc(Cl)c3)=NO2)CN1C(=O)[C@@H](NC(=O)CC1(C)CCOCC1)C(C)(C)C)C(=O)C(=O)NC1CC1 [Compound 541] | 100 to 500 | < 100
CCC[C@H](NC(=O)[C@@H]1C[C@]2(CC(c3cccc(Cl)c3)=NO2)CN1C(=O)[C@@H](NC(=O)Cc1cncc(Br)c1)C(C)(C)C)C(=O)C(=O)NC1CC1 [Compound 339] | 100 to 500 | < 100
CC(C)(C)[C@H](NC(=O)CC1CCCCC1)C(=O)N1C[C@@]2(CC(c3cc(Cl)c4c(c3)CCO4)=NO2)C[C@H]1C(=O)NC(CC1CCC1)C(=O)C(=O)NC1CC1 (stereo partly drawn) [Compound 18] | < 100 | < 100
CCC[C@H](NC(=O)[C@@H]1C[C@]2(CC(c3cccc(Cl)c3)=NO2)CN1C(=O)[C@@H](NC(=O)CC1CCCCC1)C(C)(C)C)C(=O)C(=O)NCCOc1ccccc1OC [Compound 488] | > 500 | 100 to 500
CCC[C@H](NC(=O)[C@@H]1C[C@]2(CC(c3cccc(Cl)c3)=NO2)CN1C(=O)[C@@H](NC(=O)CC1CCCCC1)C(C)(C)C)C(=O)C(=O)NCC1CC1 [Compound 265] | > 500 | 100 to 500
CCC[C@H](NC(=O)[C@@H]1C[C@]2(CC(c3cccc(Cl)c3)=NO2)CN1C(=O)[C@@H](NC(=O)CC1CCCCC1)C(C)(C)C)C(=O)C(=O)N[C@@H](C)C(O)(c1ccccc1)c1ccccc1 [Compound 507] | > 500 | > 500
CCC[C@H](NC(=O)[C@@H]1C[C@]2(CC(c3cccc(Cl)c3)=NO2)CN1C(=O)[C@@H](NC(=O)CC1CCCCC1)C(C)(C)C)C(=O)C(=O)N1CC(C)(O)C1 [Compound 426] | > 500 | 100 to 500
CCC[C@H](NC(=O)[C@@H]1C[C@]2(CC(c3cccc(Cl)c3)=NO2)CN1C(=O)[C@@H](NC(=O)CC1CCCCC1)C(C)(C)C)C(=O)C(=O)N1CCC[C@H]1COC [Compound 537] | > 500 | > 500
CCC[C@H](NC(=O)[C@@H]1C[C@]2(CC(CC)=NO2)CN1C(=O)[C@@H](NC(=O)CC1CCOCC1)C(C)(C)C)C(=O)C(=O)NC1CC1 [Compound 566] | > 500 | > 500
CCC[C@H](NC(=O)[C@@H]1C[C@]2(CC(c3cccc(Cl)c3)=NO2)CN1C(=O)[C@@H](NC(=O)CC1CC2CCC1C2)C(C)(C)C)C(=O)C(=O)NC1CC1 (stereo partly drawn) [Compound 467] | 100 to 500 | < 100
C=C[C@@H]1C[C@]1(NC(=O)[C@@H]1C[C@]2(CC(c3cccc(Cl)c3)=NO2)CN1C(=O)[C@@H](NC(=O)OC1CCCC1)C(C)(C)C)C(=O)O [Compound 443] | > 500 | > 500
CCC[C@H](NC(=O)[C@@H]1C[C@]2(CC(c3cccc(Cl)c3)=NO2)CN1C(=O)[C@H](Cc1ccc(OC(C)C)cc1)NC(C)=O)C(=O)C(=O)NC1CC1 [Compound 332] | > 500 | 100 to 500
CCC[C@H](NC(=O)[C@@H]1C[C@]2(CC(c3cccc(Cl)c3)=NO2)CN1C(=O)[C@@H](NC(=O)CC1CCCCC1)C(C)(C)C)C(=O)C(=O)NCc1nc2ccccc2[nH]1 [Compound 567] | > 500 | 100 to 500
C=C[C@@H]1C[C@]1(NC(=O)[C@@H]1C[C@]2(CC(c3cccc(Cl)c3)=NO2)CN1C(=O)[C@@H](NC(=O)CC1CCOCC1)C(C)(C)C)C(=O)O [Compound 384] | > 500 | > 500
CCC[C@H](NC(=O)[C@@H]1C[C@]2(CC(c3cccc(Cl)c3)=NO2)CN1C(=O)[C@@H](NC(=O)CC1CCCCC1)C(C)(C)C)C(=O)C(=O)N(C)CC [Compound 182] | > 500 | > 500
CCC[C@H](NC(=O)[C@@H]1C[C@]2(CC(c3cccc(Cl)c3)=NO2)CN1C(=O)[C@@H](NC(=O)[C@@H](C)C1CCCCC1)C(C)(C)C)C(=O)C(=O)NC1CC1 [Compound 284] | 100 to 500 | 100 to 500
CCC[C@H](NC(=O)[C@@H]1C[C@]2(CC(c3cccc(Cl)c3)=NO2)CN1C(=O)[C@@H](NC(C)=O)C(C)(C)C)C(=O)C(=O)NC1CC1 [Compound 12] | 100 to 500 | < 100
CCC[C@H](NC(=O)[C@@H]1C[C@]2(CC(c3cccc(Cl)c3)=NO2)CN1C(=O)[C@@H](NC(=O)[C@@H]1CCC(=O)N1C(C)C)C(C)(C)C)C(=O)C(=O)NC1CC1 [Compound 241] | > 500 | 100 to 500
CCC[C@H](NC(=O)[C@@H]1C[C@]2(CC(c3cccc(Cl)c3)=NO2)CN1C(=O)[C@@H](NC(=O)C1CCC(=O)N1)C(C)C)C(=O)C(=O)NC1CC1 (stereo partly drawn) [Compound 218] | > 500 | > 500

SMILES | Ki (HCV NS3 protease domain) [nM] | Ki [1] [nM]
CCC[C@H](NC(=O)[C@@H]1C[C@]2(CC(c3ccccc3)=NO2)CN1C(=O)[C@@H](NC(=O)CC1CCCCC1)C(C)(C)C)C(=O)C(=O)NC1CC1 [Compound 531] | 100 to 500 | 100 to 500
CCC[C@H](NC(=O)[C@@H]1C[C@]2(CC(c3cccc(Cl)c3)=NO2)CN1C(=O)[C@@H](NC(=O)CC1(C)CCCCC1)C(C)(C)C)C(=O)C(=O)NC1CC1 [Compound 29] | 100 to 500 | 100 to 500
CC(C)(C)[C@H](NC(=O)CC1CCCCC1)C(=O)N1C[C@@]2(CC(c3cccc(Cl)c3)=NO2)C[C@H]1C(=O)N[C@@H](CC1CC1)C(=O)C(N)=O [Compound 388] | < 100 | < 100
CCC[C@H](NC(=O)[C@@H]1C[C@]2(CC(c3cccc(Cl)c3)=NO2)CN1C(=O)[C@@H](NC(=O)CC1CCCCC1)C(C)(C)C)C(=O)C(=O)NCC(C)C [Compound 143] | 100 to 500 | 100 to 500
CCC[C@H](NC(=O)[C@@H]1C[C@]2(CC(c3cccc(Cl)c3)=NO2)CN1C(=O)c1[nH]c2ccccc2c1CC(=O)N(CC)CC)C(=O)C(=O)NC1CC1 [Compound 420] | > 500 | > 500
CCC[C@H](NC(=O)[C@@H]1C[C@]2(CC(c3cccc(Cl)c3)=NO2)CN1C(=O)[C@@H](NC(=O)CC1CCCCC1)C(C)(C)C)C(=O)C(=O)Nc1cccc(NS(C)(=O)=O)c1 [Compound 148] | > 500 | > 500
CCC[C@H](NC(=O)[C@@H]1C[C@]2(CC(c3cccc(Cl)c3)=NO2)CN1C(=O)[C@@H](NC(=O)CC1CCCCC1)C(C)(C)C)C(=O)C(=O)NCc1cccnc1 [Compound 408] | > 500 | 100 to 500
CCC[C@H](NC(=O)[C@@H]1C[C@]2(CC(c3cccc(Cl)c3)=NO2)CN1C(=O)[C@H](Cc1ccccc1F)NC(=O)CC1CCCCC1)C(=O)C(=O)NC1CC1 [Compound 338] | > 500 | 100 to 500
CN(C)C(=O)C(=O)[C@@H](CC1CCC1)NC(=O)[C@@H]1C[C@]2(CC(c3cccc(Cl)c3)=NO2)CN1C(=O)[C@@H](NC(=O)CC1CCCCC1)C(C)(C)C [Compound 188] | > 500 | > 500
CCC[C@H](NC(=O)[C@@H]1C[C@]2(CC(c3cccc(Cl)c3)=NO2)CN1C(=O)CCN(c1ccccc1)S(=O)(=O)c1ccccc1)C(=O)C(=O)NC1CC1 [Compound 483] | > 500 | > 500
CCC[C@H](NC(=O)[C@@H]1C[C@]2(CC(c3cccc(Cl)c3)=NO2)CN1C(=O)[C@@H](NC(=O)CC1CCCCC1)C(C)(C)C)C(=O)C(=O)N1CC(F)(F)C1 [Compound 521] | 100 to 500 | < 100
CCC[C@H](NC(=O)[C@@H]1C[C@]2(CC(c3cccc(Cl)c3)=NO2)CN1C(=O)[C@@H](NC(=O)CC1CCCCC1)C(C)(C)C)C(=O)C(=O)NCCc1c[nH]c2cc(OC)ccc12 [Compound 69] | > 500 | 100 to 500
CCC[C@H](NC(=O)[C@@H]1C[C@]2(CC(c3cc(Cl)ccc3OC)=NO2)CN1C(=O)[C@@H](NC(=O)CC1CCCCC1)C(C)(C)C)C(=O)C(=O)NC1CC1 [Compound 158] | < 100 | < 100
CCC[C@H](NC(=O)[C@@H]1CC2(CC(c3cccc(Cl)c3)=NO2)CN1C(=O)[C@H](Cc1ccc(O)cc1)NC(C)=O)C(=O)C(=O)NC1CC1 (stereo partly drawn) [Compound 412] | 100 to 500 | 100 to 500
C=C[C@@H]1C[C@]1(NC(=O)[C@@H]1C[C@]2(CC(c3cccc(Cl)c3)=NO2)CN1C(=O)[C@@H](NC(=O)O[C@H]1CCOC1)C(C)(C)C)C(=O)O [Compound 269] | > 500 | > 500
CCC[C@H](NC(=O)[C@@H]1C[C@]2(CC(c3cccc(Cl)c3)=NO2)CN1C(=O)[C@@H](NC(=O)CC1CCCCC1)C(C)(C)C)C(=O)C(=O)N(C)CCC [Compound 350] | > 500 | > 500
CCC[C@H](NC(=O)[C@@H]1C[C@]2(CC(c3cccc(Cl)c3)=NO2)CN1C(=O)[C@@H](NC(=O)CC1CCCCC1)[C@@H](C)c1ccccc1)C(=O)C(=O)NC1CC1 [Compound 125] | 100 to 500 | 100 to 500
CCC[C@H](NC(=O)[C@@H]1C[C@]2(CC(c3cccc(Cl)c3)=NO2)CN1C(=O)[C@@H](NS(=O)(=O)c1ccc(OC)cc1)C(C)CC)C(=O)C(=O)NC1CC1 (stereo partly drawn) [Compound 534] | > 500 | > 500
CCC[C@H](NC(=O)[C@@H]1C[C@]2(CC(c3cccc(Cl)c3)=NO2)CN1C(=O)CCCC(=O)Nc1ccc(C)cc1C)C(=O)C(=O)NC1CC1 [Compound 246] | > 500 | > 500
C=C[C@@H]1C[C@]1(NC(=O)[C@@H]1C[C@]2(CC(c3cccc(Cl)c3)=NO2)CN1C(=O)[C@@H](NC(=O)OC1CCOC1)C(C)(C)C)C(=O)NS(=O)(=O)C1CC1 (stereo partly drawn) [Compound 45] | > 500 | 100 to 500
CCC[C@H](NC(=O)[C@@H]1C[C@]2(CC(c3cccc(Cl)c3)=NO2)CN1C(=O)[C@@H](NC(=O)CC1CCCCC1)C(C)(C)C)C(=O)C(=O)NCc1ccccc1 [Compound 77] | 100 to 500 | < 100
